Data published in PMC9848300, “Discovery of novel enasidenib analogues targeting inhibition of mutant isocitrate dehydrogenase 2 as antileukaemic agents” (Journal of Enzyme Inhibition and Medicinal Chemistry, 2023).
Numbering of substitutions follows the chain as printed.

What was measured:
UO-31 = assay: NCI 60 antitumor screening (single dose / five doses); type: cell-based; settings: Homo sapiens; for inhibition at 10 µM: UO-31 (renal cancer), single dose 10 μM, read-out: Growth inhibition percentage (GI %); for GI50: UO-31, five doses (0.01–100 μM), read-out: GI50
786-0 = assay: as above; type: cell-based; settings: Homo sapiens; for inhibition at 10 µM: 786-0, 786-0 (renal cancer), single dose 10 μM, read-out: Growth inhibition percentage (GI %); for GI50: 786-0, five doses (0.01–100 μM), read-out: GI50
IDH2^R140Q = molecular target: T1, IDH2^R140Q (Homo sapiens, UniProt P48735, R140Q); assay: biochemical
T1 sequence (P48735 40-452 R140Q): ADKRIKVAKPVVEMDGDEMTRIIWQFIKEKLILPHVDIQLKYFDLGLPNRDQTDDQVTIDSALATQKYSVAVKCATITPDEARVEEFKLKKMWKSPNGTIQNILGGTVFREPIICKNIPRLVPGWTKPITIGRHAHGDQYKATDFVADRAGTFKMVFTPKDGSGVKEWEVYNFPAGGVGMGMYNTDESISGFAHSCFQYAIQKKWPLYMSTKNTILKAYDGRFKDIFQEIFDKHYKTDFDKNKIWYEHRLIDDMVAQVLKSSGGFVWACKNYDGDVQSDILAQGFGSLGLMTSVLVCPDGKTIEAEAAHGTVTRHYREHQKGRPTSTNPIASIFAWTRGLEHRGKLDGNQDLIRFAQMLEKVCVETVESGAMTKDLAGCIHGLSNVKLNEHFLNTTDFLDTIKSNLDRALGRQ

SW-620 = assay: NCI 60 antitumor screening (single dose / five doses); type: cell-based, human; settings: Homo sapiens; for GI50: SW-620, SW-620, five doses (0.01–100 μM), read-out: GI50; for inhibition at 10 µM: SW-620 (colon cancer), single dose 10 μM, read-out: Growth inhibition percentage (GI %)
T-47D = assay: as above; type: cell-based; settings: Homo sapiens, T47D; for inhibition at 10 µM: T-47D (breast cancer), single dose 10 μM, read-out: Growth inhibition percentage (GI %); for GI50: T-47D, five doses (0.01–100 μM), read-out: GI50
HT29 = assay: as above; type: cell-based, human; settings: Homo sapiens; for GI50: HT-29, HT29, five doses (0.01–100 μM), read-out: GI50; for inhibition at 10 µM: HT-29, HT29 (colon cancer), single dose 10 μM, read-out: Growth inhibition percentage (GI %)
HOP-92 = assay: as above; type: cell-based; settings: Homo sapiens; for inhibition at 10 µM: HOP-92 (non-small cell lung cancer), single dose 10 μM, read-out: Growth inhibition percentage (GI %); for GI50: HOP-92, five doses (0.01–100 μM), read-out: GI50
wild type IDH2 = molecular target: T2, wild type IDH2 (Homo sapiens, UniProt P48735); assay: IDH2 enzyme inhibition assay (wild type IDH Assay Kit)
T2 sequence (P48735 40-452): T1 sequence (P48735 40-452 R140Q) with Q101R

Compound	inhibition at 10 µM (UO-31) [%]	GI50 (UO-31) [nM]	inhibition at 10 µM (786-0) [%]	GI50 (786-0) [nM]	IC50 (IDH2^R140Q) [nM]	GI50 (SW-620) [nM]	inhibition at 10 µM (SW-620) [%]	inhibition at 10 µM (T-47D) [%]	GI50 (T-47D) [nM]	GI50 (HT29) [nM]	inhibition at 10 µM (HT29) [%]	inhibition at 10 µM (HOP-92) [%]	GI50 (HOP-92) [nM]	IC50 (wild type IDH2) [µM]
Clc1cccc(/C=N/Nc2nc(N/N=C/c3cccc(Cl)c3)nc(N3CCOCC3)n2)c1 [compound 6d, 2,4-Bis[(E)-2-[(3-chlorophenyl)methylidene]hydrazin-1-yl]-6-(morpholin-4-yl)-1,3,5-triazine]	73.2	1610	69.4	1070	1870 ± 91.2	1780	81.9	31.5	3540	1340	91.8	34.5	2170	–
Fc1cccc(/C=N/Nc2nc(N/N=C/c3cccc(F)c3)nc(N3CCOCC3)n2)c1 [compound 6e, 2,4-Bis[(E)-2-[(3-Fluorophenyl)methylidene]hydrazin-1-yl]-6-(morpholin-4-yl)-1,3,5-triazine]	30.3	–	54	–	67 ± 3.27	–	34	10.3	–	–	53.5	8.68	–	2.3 ± 0.09
CN(C)c1ccc(/C=N/Nc2nc(N/N=C/c3ccc(N(C)C)cc3)nc(N3CCOCC3)n2)cc1 [compound 6g, 4-[(1e)-(2-{4-[(E)-2-{[4-(dimethylamino)phenyl]methylidene}hydrazin-1-yl]-6-(morpholin-4-yl)-1,3,5-triazin-2-yl}hydrazin-1-ylidene)methyl]-N,N-dimethylaniline]	9.35	–	15.4	–	336 ± 16.4	–	16.2	5.31	–	–	-1.91	-8.78	–	–
Fc1cccc(Cl)c1/C=N/Nc1nc(N/N=C/c2c(F)cccc2Cl)nc(N2CCOCC2)n1 [compound 6l, 2,4-Bis[(E)-2-[(2-Chloro-6-fluorophenyl)methylidene]hydrazin-1-yl]-6-(morpholin-4-yl)-1,3,5-triazine]	33.5	–	3.32	–	158 ± 7.72	–	9.73	29.5	–	–	30.6	27	–	3.44 ± 0.13
Oc1ccccc1/C=N/Nc1nc(N/N=C/c2ccccc2O)nc(N2CCCCC2)n1 [compound 7a, 2-[(1e)-(2-{4-[(E)-2-[(2-Hydroxyphenyl)methylidene]hydrazin-1-yl]-6-(piperidin-1-yl)-1,3,5-triazin-2-yl}hydrazin-1-ylidene)methyl] phenol]	51.7	–	26.8	–	130 ± 6.35	–	32.2	51.8	–	–	54.7	21.6	–	5.42 ± 0.21
Brc1cccc(/C=N/Nc2nc(N/N=C/c3cccc(Br)c3)nc(N3CCCCC3)n2)c1 [compound 7c, 2,4-Bis[(E)-2-[(3-Bromophenyl)methylidene]hydrazin-1-yl]-6-(piperidin-1-yl)-1,3,5-triazine]	20.2	–	4.36	–	88.9 ± 4.34	–	-8.28	12.3	–	–	3.98	-12.8	–	3.13 ± 0.12
Clc1cccc(/C=N/Nc2nc(N/N=C/c3cccc(Cl)c3)nc(N3CCCCC3)n2)c1 [compound 7d, 2,4-Bis[(E)-2-[(3-Chlorophenyl)methylidene]hydrazin-1-yl]-6-(piperidin-1-yl)-1,3,5-triazine]	23.2	–	4.76	–	370 ± 18	–	-2.95	24	–	–	14.4	-7.89	–	–
Fc1cccc(/C=N/Nc2nc(N/N=C/c3cccc(F)c3)nc(N3CCCCC3)n2)c1 [compound 7e, 2,4-Bis[(E)-2-[(3-Fluorophenyl)methylidene]hydrazin-1-yl]-6-(piperidin-1-yl)-1,3,5-triazine]	22.1	–	10.5	–	176 ± 8.6	–	-7.5	30.6	–	–	8.7	-16	–	5.07 ± 0.2
CN(C)c1ccc(/C=N/Nc2nc(N/N=C/c3ccc(N(C)C)cc3)nc(N3CCCCC3)n2)cc1 [compound 7g, 4-[(1e)-(2-{4-[(E)-2-{[4-(dimethylamino)phenyl]methylidene}chydrazin-1-yl]-6-(piperidin-1-yl)-1,3,5-triazin-2-yl}hydrazin-1-ylidene)methyl]-N,N-dimethylaniline]	19.7	1720	11.8	1690	505 ± 24.7	1890	35.8	54	2180	1760	105	16	1470	–
Fc1cccc(Cl)c1/C=N/Nc1nc(N/N=C/c2c(F)cccc2Cl)nc(N2CCCCC2)n1 [compound 7l, 2,4-Bis[(E)-2-[(2-Chloro-6-fluorophenyl)methylidene]hydrazin-1-yl]-6-(piperidin-1-yl)-1,3,5-triazine]	91	2010	71.7	3440	160 ± 7.81	3510	82.8	89	1710	2900	96.5	101	1470	9.5 ± 0.37
